What all share (assay): Bliss excess, mean over the matrix (fraction); higher = more synergy
The test system of experiment [1] is BHT-101 (Thyroid Gland Carcinoma). The method, boiled down: (§1)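 Cell lines in DMEM/F12 or RPMI with 10% FBS were plated in 1536-well plates, held 24 hours at 37°C, 5% CO2, then given two-drug dose matrices for 72 hours (DMSO typically 0.2%). Viability was read by CellTiter-Glo 2.0 luminescence and scaled as inhibition from 0 (vehicle wells) to 1 (blank wells). Combination Emax is the second-highest inhibition in the matrix; Bliss excess is observed combination effect minus expected EA + EB − EA·EB, EA and EB being single-agent effects.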

In experiment [2] the test system is C-33-A (Cervical Carcinoma). Summed up:
as §1

Experiment [3] deals with CPC-N (Small Cell Lung Carcinoma). Summed up: as §1
The test system of a further experiment is ES6 (Ewing's Sarcoma). The method, boiled down: as §1
Another experiment deals with KALS-1 (Glioblastoma). Summed up:
as §1

The test system of experiment [4] is LS-1034 (Colorectal Carcinoma). The method, boiled down:
as §1

Experiment [5] relates to MDA-MB-415 (Breast Carcinoma). The method, boiled down: as §1
In experiment [6] the test system is MM1S (Plasma Cell Myeloma). Summed up:
as §1

In experiment [7] the test system is MOLP-8 (Plasma Cell Myeloma). The method, boiled down: as §1
In experiment [8] the test system is MS-1 (Small Cell Lung Carcinoma). The method, boiled down: as §1
Experiment [9] has as its system NCI-H1876 (Small Cell Lung Carcinoma). The method, boiled down: as §1
Experiment [10] concerns NCI-H1963 (Small Cell Lung Carcinoma). The method, boiled down:
as §1

Experiment [11] relates to NCI-H3118 (Head and Neck Carcinoma). The method, boiled down: as §1
In experiment [12] the test system is OVCAR-3 (Ovarian Carcinoma). Summed up:
as §1

The test system of experiment [13] is PA-TU-8988T (Pancreatic Carcinoma). Summed up:
as §1

The subject of experiment [14] is Raji (Burkitt's Lymphoma). The method, boiled down: as §1
Experiment [15] deals with SNU-C2B (Colorectal Carcinoma). Summed up:
as §1

Experiment [16] has as its system T84 (Colorectal Carcinoma). The method, boiled down: as §1
Experiment [17] deals with TUR (Acute Myeloid Leukemia). Summed up:
as §1

For a further experiment, the system named is UACC-257 (Melanoma). Summed up: as §1

For `COc1nnc2ccc(N3CCC(c4ccc(OCCN5CCN(C)C(=O)[C@H]5C)cc4)CC3)nn12` [AZD5153] + CC1(C)CCC(CN2CCN(c3ccc(C(=O)NS(=O)(=O)c4ccc(NCC5CCOCC5)c([N+](=O)[O-])c4)c(Oc4cnc5[nH]ccc5c4)c3)CC2)=C(c2ccc(Cl)cc2)C1 [Venetoclax] (first compound max 1 µM, 7x7, partner max 1 µM), the Bliss excess in experiment [1] is -0.0616; in experiment [2], -0.0107; in experiment [3] it was 0.0046; with ES6 (Ewing's Sarcoma), -0.0327; in the experiment on KALS-1 (Glioblastoma) it was -0.0418; in experiment [4], -0.011. The Bliss excess is -0.0155 in [5]; -0.0394 in experiment [6]; 0.0065 in [7]; 0.0094 in experiment [8]; 0.0029 in [9]; 0.0782 in experiment [10]. Besides, the Bliss excess in [11] is -0.0517; in [12] it was -0.0157; in experiment [13] it was -0.0254; in [14] it was -0.0247; in experiment [15], -0.0598; in experiment [16], -0.0874. For the same compound, the Bliss excess is -0.0224 in experiment [17] and -0.0555 in the experiment on UACC-257 (Melanoma).
For the compound `CC1(C)CCC(CN2CCN(c3ccc(C(=O)NS(=O)(=O)c4ccc(NCC5CCOCC5)c([N+](=O)[O-])c4)c(Oc4cnc5[nH]ccc5c4)c3)CC2)=C(c2ccc(Cl)cc2)C1` [Venetoclax] + CN(C)CCCOc1ccc(-c2ccc3ncc4c(c3c2)n(C2CCOCC2)c(=O)n4C)cn1 [AZD0156] (first compound max 1 µM, 7x7, partner max 1 µM), the Bliss excess in [1] was -0.0272; in [2], -0.002; in experiment [3], -0.0013; in the experiment with ES6 (Ewing's Sarcoma), -0.0201; in the experiment with KALS-1 (Glioblastoma) it was -0.0717; in experiment [4] it was -0.052. For the same compound, the Bliss excess in [5] is -0.0869; in [6] it was 0.0344; in [7], 0.0203; in experiment [8], 0.0128; in [9], 0.0501; in experiment [10] it was 0.0715. Also, the Bliss excess in experiment [11] is 0.005; in [12], -0.0303; in [13], -0.0102; in [14] it was 0.0279; in experiment [15], -0.0135; in [16] it was -0.0452. Also, the values for the Bliss excess (in experiment [17]; in the experiment on UACC-257 (Melanoma)) were -0.0102 and -0.004, respectively.
For `CN(CCO)CC[C@H](CSc1ccccc1)Nc1ccc(S(=O)(=O)NC(=O)c2ccc(N3CCC([C@@H](O)c4ccccc4-c4ccc(Cl)cc4)CC3)cc2)cc1S(=O)(=O)C(F)(F)F` [AZD4320] + C=CCn1c(=O)c2cnc(Nc3ccc(N4CCN(C)CC4)cc3)nc2n1-c1cccc(C(C)(C)O)n1 [AZD1775] (first compound max 1 µM, partner max 1 µM), the Bliss excess in experiment [1] was 0.0142; in [2], -0.0246; in experiment [3], 0.0249; in the experiment with ES6 (Ewing's Sarcoma) it was 0.0586; with KALS-1 (Glioblastoma) it was 0.0252; in experiment [4], 0.0344. In addition, the Bliss excess is -0.0034 in experiment [5]; 0.0981 in [6]; 0.0782 in experiment [7]; 0.112 in experiment [8]; 0.0833 in experiment [9]; 0.0565 in experiment [10]. Further, the Bliss excess in experiment [11] is -0.0226; in experiment [12], 0.0007; in [13] it was 0.0011; in [14], -0.0028; in experiment [15] it was -0.0143; in experiment [16] it was -0.0408. For the same compound, the Bliss excess was 0.0015 in [17] and -0.0419 in the experiment on UACC-257 (Melanoma).
On to `COc1cccc(OCCCN)c1-c1cc(Nc2cnc(C#N)cn2)n[nH]1` [Prexasertib] + O=C(c1cc(Cc2n[nH]c(=O)c3ccccc23)ccc1F)N1CCN(C(=O)C2CC2)CC1 [Olaparib] (first compound max 1 µM, 7x7, partner max 10 µM), for which the Bliss excess is -0.0528 in experiment [1]; -0.0329 in experiment [2]; -0.0458 in [3]; 0.0253 in the experiment on ES6 (Ewing's Sarcoma); -0.115 in the experiment with KALS-1 (Glioblastoma); -0.027 in experiment [4]. Also, the Bliss excess was 0.0074 in experiment [5]; -0.0683 in experiment [6]; -0.0802 in [7]; -0.0481 in experiment [8]; -0.0338 in experiment [9]; -0.0327 in [10]. The Bliss excess was -0.0501 in [11]; 0.0265 in [12]; -0.0057 in [13]; 0.0082 in experiment [14]; -0.0414 in experiment [15]; -0.0119 in experiment [16]. Also, the figures for the Bliss excess (in experiment [17]; in the experiment on UACC-257 (Melanoma)) were -0.0181 and -0.0242, respectively.
With `CN(C)CCCOc1ccc(-c2ccc3ncc4c(c3c2)n(C2CCOCC2)c(=O)n4C)cn1` [AZD0156] + C=CCn1c(=O)c2cnc(Nc3ccc(N4CCN(C)CC4)cc3)nc2n1-c1cccc(C(C)(C)O)n1 [AZD1775] (first compound max 1 µM, partner max 1 µM), the Bliss excess in experiment [1] is -0.0209; in [2], -0.0461; in experiment [3], -0.0025; with ES6 (Ewing's Sarcoma), -0.0501; in the experiment with KALS-1 (Glioblastoma), 0.0014; in experiment [4], -0.0318. The Bliss excess in experiment [5] was -0.0615; in experiment [6], -0.0653; in experiment [7], -0.0739; in [8], -0.0301; in experiment [9] it was 0.0171; in experiment [10] it was -0.0147. Further, the Bliss excess in [11] is -0.0933; in experiment [12], -0.02; in experiment [13], -0.0504; in experiment [14] it was -0.0278; in experiment [15], -0.0328; in experiment [16], -0.0631. The Bliss excess was 0.0088 in experiment [17] and -0.0223 with UACC-257 (Melanoma).
For `COc1cccc(OCCCN)c1-c1cc(Nc2cnc(C#N)cn2)n[nH]1` [Prexasertib] + CCc1c2c(nc3ccc(O)cc13)-c1cc3c(c(=O)n1C2)COC(=O)[C@]3(O)CC [SN-38] (first compound max 1 µM, 7x7, partner max 0.3 µM), the Bliss excess in experiment [1] stood at 0.0077; in [2] it was 0.0583; in experiment [3] it was 0.0633; with ES6 (Ewing's Sarcoma) it was 0.0156; with KALS-1 (Glioblastoma) it was 0.0399; in experiment [4] it was 0.0888. The Bliss excess in [5] was 0.106; in experiment [6], -0.0065; in [7], -0.082; in experiment [8], -0.0051; in [9], 0.0067; in [10] it was 0.0138. Also, the Bliss excess in experiment [11] is 0.0162; in experiment [12], 0.141; in experiment [13], 0.167; in experiment [14], -0.0279; in [15], -0.0388; in experiment [16], 0.0636. The Bliss excess in experiment [17] is 0.0107; in the experiment on UACC-257 (Melanoma), -0.0664.
Turning to `C=CCn1c(=O)c2cnc(Nc3ccc(N4CCN(C)CC4)cc3)nc2n1-c1cccc(C(C)(C)O)n1` [AZD1775] + C[C@@H]1COCCN1C2=NC(=NC(=C2)C3(CC3)[S@](=N)(=O)C)C4=C5C=CNC5=NC=C4 [AZD6738] (first compound max 1 µM, partner max 10 µM), the Bliss excess worked out at 0.0094 in [1]; 0.0554 in experiment [2]; 0.0072 in [3]; 0.0509 with ES6 (Ewing's Sarcoma); 0.0058 in the experiment with KALS-1 (Glioblastoma); 0.0097 in experiment [4]. In addition, the Bliss excess in [5] is 0.0112; in experiment [6], -0.0128; in experiment [7], -0.0064; in [8], 0.0322; in experiment [9], 0.0099; in [10] it was 0.036. The Bliss excess in experiment [11] was 0.0218; in [12] it was 0.113; in experiment [13] it was 0.0222; in experiment [14] it was 0.109; in experiment [15], -0.0212; in experiment [16], 0.0084. For the same compound, the Bliss excess in experiment [17] came out at 0.0657; in the experiment with UACC-257 (Melanoma) it was 0.0398.

The record behind these values is the supplement of paper PMC11061612.
